# Assay results published in patent US8263576B2, “Non-natural sphingolipid analogs and uses thereof” (Mayo Foundation for Medical Education and Research, priority 2006, dated 2012).
# Key:
# rat fibroblasts = test: Inhibition of lipid analog endocytosis by biochemical treatments in rat fibroblasts; assay type: cell-based
# From the text: To define the molecular features of GSL analogs and their ability to selectively internalize by caveolar endocytosis, the structure of the natural D-erythro-LacCer compound was modified (Singh, R. D., et al. Mol. Biol. Cell, 2003, 14, 3254). The modifications included those to the structure of the fluorescent lipid through variations to its carbohydrate headgroup, chain length of the sphingosine base, or chain length of the fluorescent fatty acid (see FIG. 6). Tests were designed to test initial internalization and sensitivity to inhibitor treatments.
# To investigate the structural determinants of GSLs that result in selective internalization via caveolae, the structure of the fluorescent GSL analogs were systematically varied (see FIG. 6) and examined to determine the effect of these variations on the mechanism of analog internalization. To examine the significance of the carbohydrate head group, the fluorescent analogs of GalCer, globoside, GM1, LacCer, MalCer, and sulfatide were used. For each of these fluorescent GSL analogs, the fluorescent fatty acid and sphingosine base were identical (n′=3, n=7; FIG. 6A). Rat fibroblasts (RFs) were incubated with each analog in the presence or absence of various inhibitors to differentiate clathrin-dependent from clathrin-independent endocytosis, and the amount of internalization (at 5 min) was quantified by image analysis.
# A control experiment was carried out exactly as above, except that BODIPY-LacCer was introduced into cells from an ethanolic solution rather than from a BSA complex.
# Furthermore, the importance of hydrophobicity on the mechanism of GSL endocytosis was examined. For these studies, the BODIPY-LacCer analogs that were used varied the chain length of the sphingosine base (C12 to C20), or fatty acid (C3 vs. C5 spacer) (n=1, 5, 7, or 9; n′=1 or 3; FIG. 6A).
# Finally, a comparison between NBD-LacCer and NBD-D-PC (see FIG. 6B)was made to study the possible influence of the lipid backbone (ceramide vs. glycerol) on the internalization mechanism.
# [1] = test system: clathrin-dependent endocytosis; conditions: Singh et al., J. Biol. Chem. 2006; cited from earlier work
# src kinase = test: src phosphorylation (Y416) immunoblot in HSFs; assay type: cell-based, human; conditions: for src activation (phosphorylation at Y416), lipid alone: 30 min at 10° C., then 30 sec at 37° C.; for src phosphorylation induced by β1-stim Ab: cells pretreated with lipid, data not shown
# Description: HSFs were treated with C8-DE-LacCer (±PP2), C8-LT-LacCer, PDGF, or with β1 stim Ab±LacCer isomers. Samples were warmed for 30 sec at 37° C., lysed, and the cell lysates blotted for src and phosphor-Src (Y416).
# Cells were incubated for 30 min at 10° C.± the LacCer stereoisomers and/or the β1-stim Ab followed by a 30 sec incubation at 37° C. Cell lysates were then immunoblotted for src and phospho-(Y416) src.
# [2] = test system: PM domains enriched in GM1 ganglioside; test: PM microdomain clustering induced by CtxB and anti-CtxB Ab in HSFs; assay type: cell-based, human; conditions: HSFs pretreated with lipid 30 min at 10° C.
# From the text: (§1) PM domains enriched in GM1 ganglioside (A,B) or cholesterol (C) were visualized using fluorescent CtxB or BC-⊖, respectively. Clustering of these probes was induced using an anti-CtxB Ab or SV40. Note the inhibition of microdomain clustering when cells were pretreated with C8-LT-LacCer, compared to untreated control samples. (A), HSFs; (B,C) CV1 cells. Bars, 10 μm.
# A potential mechanism for C8-LT-LacCer inhibition of caveolar endocytosis, namely disruption of PM microdomain formation, was explored. This mechanistic possibility was tested through incubation of cells with AF594-CtxB at 10° C. to label […] at the PM, followed by an anti-Ctx-B IgG.
# [3] = test system: caveolar endocytosis in HSFs; test: Uptake of endocytic markers in human skin fibroblasts (fluorescence microscopy); assay type: cell-based; conditions: HSFs treated 30 min at 10° C. with lipid, pulse labeled, 5 min at 37° C.
# Description: HSFs were either untreated (Control) or treated for 30 min at 10° C. with D-erythro or L-threo-C8-LacCer, and then pulse labeled with fluorescent albumin or β1-integrin Fab (caveolar markers), Tfn (clathrin marker), dextran (fluid phase marker), or anti-IL2R Fab (for RhoA pathway). After 5 min at 37° C., cells were acid-stripped to remove non-internalized marker and images were acquired by fluorescence microscopy (A) and quantified (B). At least 20 cells for each condition were analyzed in multiple experiments. Bar, 10 μm.
# The non-natural (L-threo; LT) isomers of C8-LacCer and BODIPY-LacCer were synthesized. The latter was synthesized by the method detailed in Liu, Y., et al. Chem. Phys. Lipids, 2006, 142, 58 (referred to as Liu). C8-LT-LacCer was prepared through a modification of the methods used in Liu, where an activated for of octanoic acid was used in place of BODIPY-C5-NHS. HSFs were then either untreated (Control) or treated for 30 min at 10° C. with D-erythro (DE) or L-threo (LT) C8-LacCer, and then pulse labeled with fluorescent albumin or anti-β1-integrin Fab (caveolar markers), Tfn (clathrin marker), dextran (fluid phase marker), or anti-IL2R Fab (for RhoA pathway). After 5 min at 37° C., cells were acid-stripped to remove non-internalized marker and images were acquired by fluorescence microscopy (A) and quantified (B). At least 20 cells for each condition were analyzed in multiple experiments. Bar, 10 μm.
# human eosinophils [4] = test: Eosinophil adhesion to tissue culture wells; assay type: cell-based
# [5] = test system: PM domains enriched in GM1 ganglioside; conditions: Singh et al., 2006, submitted; cited from earlier work
# β1-integrin = target: T1, β1-integrin (Homo sapiens, UniProt P05556); test: β1-integrin activation in HSFs (HUTS-4 Ab binding); assay type: cell-based; conditions: for HUTS binding (β1-integrin activation), agent alone: HSFs, lipid in the absence of β1-stim Ab, or β1-stim Ab alone
# T1 construct: endogenous in cells; host or cells: human skin fibroblasts (HSFs)
# Description: FIG. 4a: HSFs were serum-starved for 2-3 hrs and then either untreated (panel 1, Control) or incubated with a stimulating β1-integrin IgG (panel 2; β1-stim) or with the LacCer isomers (panels 3 & 4) for 30 min at 10° C. All samples were then warmed for 30 sec at 37° C., fixed and stained with HUTS-4 Ab that recognizes β1-integrin in its active conformation. Note the absence of β1-integrin activation in cells pretreated with C8-LT-LacCer. Quantitation in FIG. 4b was by image analysis (n≧10 cells/condition; 3 independent experiments). Bars, 10 μm.
# A further mechanistic possibility by which C8-LT-LacCer might inhibit caveolar internalization is by disruption transmembrane signaling events required for endocytosis. […] The first examination involved the activation of β1-integrin in HSFs following crosslinking with a stimulatory Ab (β1-stim Ab) using the HUTS-4 Ab which only binds to β1-integrins in their activated conformation (see, e.g., Luque, A. et al., J. Biol. Chem. 1996, 271, 11067).
# human eosinophils [6] = test: Eosinophil superoxide generation (cytochrome c reduction); assay type: cell-based; conditions: versus medium alone, 37° C., up to 4 h
# Description: Human eosinophils were purified from normal individuals or patients with mild allergy by Percoll density gradient centrifugation and magnetic cell sorting using MACS anti-CD16 microbeads as described by Hansel T. T., et al., J. Immunol. Methods 1991, 145, 105. Briefly, after peripheral blood was overlaid on an isotonic Percoll solution (1.084 g.ml, Sigma), the blood was centrifuges at 1000×g for 30 min at 4° C. Mononuclear cells at the interface were removed, and erythrocytes in sediment were lysed by two cycles of hypotonic water lysis. […] The purity of eosinophils counted by Randolph's stain was >98%. […]
# Superoxide anion generation and degranulation by human eosinophils were used as readouts of eosinophils functions in response to proteases or synthetic PAR activating peptides. Generation of superoxide by eosinophils was measured by superoxide dismutase-inhibitable reduction of cytochrome c as previously described with slight modifications. […] Immediately after addition of stimuli, the reaction wells were measured for absorbance at 550 nm in a microplate autoreader (Thermomax, Molecular Devices, Menlo Park, Calif.), followed by repeated readings. Between absorbance measurements, the plate was incubated at 37° C. […] To quantitate eosinophils degranulation, the concentrations of eosinphil-derived neutrotoxin (EDN) in the sample supernatants were measure by specific RIA.
# SV40 virus [7] = test: SV40 infection of CV1 cells (large T antigen expression); assay type: cell-based, monkey; conditions: CV1 cells pretreated with lipid and SV40 at low temperature, then 37° C. for 14 hrs
# SV40 virus [8] = test: SV40 binding to CV1 cells (anti-SV40 VP1 MAb); conditions: lipid and SV40 at low temperature
# Description: (A, B) CV1 cells were incubated LacCer stereoisomers for 30 min at 10° C., and then coincubated for 1 hr at 10° C. with SV40 virus (MOI=15). Samples were washed, incubated for 40 hrs in complete medium, fixed, permeabilized, and stained for the Large T antigen. Values in (B) are mean ±SD (n≧50 cells/condition; three independent experiments). (C, D) CVI cells were treated with SV40 for 1 hr as in (A,B) and SV40 binding to live cells was detected using anti-SV40 VP1 MAb. Values in D are mean ±SD (n≧20 cells from two independent experiments).
# Cells were treated with the C8-LT-LacCer isomer and SV40 at low temperature, washed, and then incubated with a monoclonal antibody to the SV40 major capsid protein VP1.
# [9] = test system: PM domains enriched in GM1 ganglioside and cholesterol; test: SV40-induced PM domain formation in CV1 cells; assay type: cell-based, monkey; conditions: CV1 cells pretreated with lipid, low temperature
# From the text: as §1
# [10] = test system: clathrin-dependent endocytosis; test: Internalization route of BODIPY-LacCer stereoisomers; assay type: cell-based; conditions: data not shown
# T1 sequence (P05556 21-798): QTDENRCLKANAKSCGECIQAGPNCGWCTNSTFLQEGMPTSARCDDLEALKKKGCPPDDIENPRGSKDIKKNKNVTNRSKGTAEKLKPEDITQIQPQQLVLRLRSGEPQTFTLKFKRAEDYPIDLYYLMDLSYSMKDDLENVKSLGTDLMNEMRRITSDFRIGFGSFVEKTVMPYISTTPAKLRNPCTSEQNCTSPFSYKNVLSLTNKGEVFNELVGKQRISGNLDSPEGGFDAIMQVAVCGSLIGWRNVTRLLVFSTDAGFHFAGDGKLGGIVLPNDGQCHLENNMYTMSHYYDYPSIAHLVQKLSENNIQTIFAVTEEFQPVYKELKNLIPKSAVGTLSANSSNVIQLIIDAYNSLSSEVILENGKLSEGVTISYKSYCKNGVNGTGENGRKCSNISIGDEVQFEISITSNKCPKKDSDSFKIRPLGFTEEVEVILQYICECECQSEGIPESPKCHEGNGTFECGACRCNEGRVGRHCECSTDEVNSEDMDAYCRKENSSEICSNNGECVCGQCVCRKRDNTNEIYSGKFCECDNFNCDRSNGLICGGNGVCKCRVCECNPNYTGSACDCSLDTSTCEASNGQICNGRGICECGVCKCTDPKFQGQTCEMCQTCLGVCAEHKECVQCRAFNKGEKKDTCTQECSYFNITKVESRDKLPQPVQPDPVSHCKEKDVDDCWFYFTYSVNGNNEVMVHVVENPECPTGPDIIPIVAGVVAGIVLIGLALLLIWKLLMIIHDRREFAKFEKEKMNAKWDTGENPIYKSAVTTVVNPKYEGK
molecule,measurement,setting,value
CCCCCCCCCCCCC/C=C/[C@@H](O)[C@H](CO[C@@H]1O[C@H](CO)[C@@H](O[C@@H]2O[C@H](CO)[C@H](O)[C@H](O)[C@H]2O)[C@H](O)[C@H]1O)NC(=O)CCCCc1ccc2n1[B-](F)(F)[N+]1=C(C)C=C(C)C1=C2 [BODIPY-LacCer],sensitivity of internalization to chlorpromazine (CPZ),rat fibroblasts,not by chlorpromazine
same,sensitivity of internalization to nystatin,rat fibroblasts,substantially inhibited
same,inhibition of endocytosis when delivered by ethanol injection vs. BSA complex,rat fibroblasts; ethanolic solution,virtually identical results
same,"Inhibition of lipid analog endocytosis, Clathrin-dependent internalization, Chloropromazine",rat fibroblasts; internalization at 5 min,9.3 ± 1.7%
same,"Inhibition of lipid analog endocytosis, Clathrin-dependent internalization, K+-depletion",rat fibroblasts; internalization at 5 min,10.4 ± 1.3%
same,"Inhibition of lipid analog endocytosis, Clathrin-independent internalization, Genistein",rat fibroblasts; internalization at 5 min,73.9 ± 4.1%
same,"Inhibition of lipid analog endocytosis, Clathrin-independent internalization, Nystatin",rat fibroblasts; internalization at 5 min,75.1 ± 6.8%
same,internalization route,[1],internalized via caveolae
CCCCCCCCCCCCC/C=C/[C@@H](O)[C@H](CO[C@@H]1O[C@H](CO)[C@@H](O[C@@H]2O[C@H](CO)[C@H](O)[C@H](O)[C@H]2O)[C@H](O)[C@H]1O)NC(=O)CCCCCCC [C8-DE-LacCer],"src activation (phosphorylation at Y416), lipid alone",src kinase,activated (phosphorylated at Y416)
same,src phosphorylation induced by β1-stim Ab,src kinase,did not significantly affect src phosphorylation
same,clustering of PM domains induced by labeled CtxB and crosslinking Ab,[2],No inhibition of domain formation was observed
same,"uptake of caveolar markers (fluorescent albumin, β1-integrin Fab)",[3],stimulated caveolar uptake
same,adhesion of eosinophils,human eosinophils [4],induces adhesion of eosinophils to tissue culture wells
same,formation of PM domains in the absence of a crosslinking Ab,[5],induced the formation of large domains enriched in GM1 ganglioside and cholesterol
same,"HUTS binding (β1-integrin activation), agent alone",β1-integrin,activated β1-integrin
same,superoxide production by eosinophils,human eosinophils [6],A large quantity of superoxide was produced
same,SV40 infection monitored by expression of the large T antigen,SV40 virus [7],no effect
"CCCCCCCCCCCCC/C=C/[C@H](O)[C@H](CO[C@@H]1O[C@H](CO)[C@@H](O[C@@H]2O[C@H](CO)[C@H](O)[C@H](O)[C@H]2O)[C@H](O)[C@H]1O)NC(=O)CCCCCCC [C8-LT-LacCer, β-D-lactosyl-N-octanoyl-L-threo-sphingosine]","src activation (phosphorylation at Y416), lipid alone",src kinase,little or no src activation
same,src phosphorylation induced by β1-stim Ab,src kinase,inhibited src phosphorylation
same,clustering of PM domains induced by labeled CtxB and crosslinking Ab,[2],no clustering of PM domains was observed
same,inhibition of SV40 binding to CV1 cells,SV40 virus [8],about 80%
same,"uptake of caveolar markers (fluorescent albumin, β1-integrin Fab)",[3],inhibited uptake of multiple caveolar markers
same,"uptake of caveolar markers (fluorescent albumin, β1-integrin Fab)",[3]; listed as LT-isomer of C8-LacCer,selectively inhibiting caveolar endocytosis
same,HUTS binding (β1-integrin activation) induced by β1-stim Ab,β1-integrin; HSFs pretreated with lipid prior to β1-stim Ab,reduced HUTS binding to levels seen in untreated control cells
same,"HUTS binding (β1-integrin activation), agent alone",β1-integrin,no increase in HUTS binding was seen
same,SV40 induction of PM domains,[9],prevented the SV40 induction of these PM domains
same,SV40 infection monitored by expression of the large T antigen,SV40 virus [7],dramatically reduced
CC(C)(C)n1nc(-c2ccc(Cl)cc2)c2c(N)ncnc21 [PP2],src activation induced by C8-DE-LacCer,src kinase; with src inhibitor,blocked
C5-BODIPY-L-threo-lactosylceramide [BODIPY-LT-LacCer],fraction internalized by clathrin-dependent endocytosis,[10],65-70%
